Experimental data published in patent publication US6911450B1, “Pyrimidine acyclonucleoside derivatives, preparation method and use thereof” (Universite de Geneve, priority 2001, dated 2005).
Read-outs that look alike come from different tables or passages of the source. Blank lines part the entries; values can stand above or below the molecule they belong to.

Assays:
[1] = Cytotoxicity assay revealed by MTT after seven days of culture; assay type: cell-based, human; details: human, PBMC, 50% diminution of growth and viability
Experimental: (§1) Concurrently to the screening, and in the same conditions, cytotoxicity assays of the test compounds were carried out.
(§2) This assay has allowed to determine the concentration of the product causing a diminution of 50% of the growth and the viability of PBMC (CC50).
(§3) The PBMC were isolated as described in Ulmer and col., Immunobiology, 166(3), 238-250 (1984) from a healthy donor by a Ficoll gradient (Nicomed Pharma AS).
(§4) The PBMC were activated with phytohemagglutinine for three days and then cultivated in a 96-well plate, in a base medium (RPMI) supplemented with recombinant human Interleukin-2.
(§5) Throughout the culture, the cells were maintained at 37° C., in an atmosphere saturated in humidity, and under 5% CO2.

HIV-1 lai strain = assay: Anti-HIV test on PBMC, viral replication measured by Reverse Transcriptase (RT) activity in culture supernatants; assay type: cell-based; details: for IC50 / IC90: Human immunodeficiency virus 1, 168 h, against HIV-Lai on PBMC, 7 days, RT activity assay; for activity relative to that of its congeners or of its rivals: from Table 1
Experimental: The object of the screening is to evaluate the antiretroviral activity of the compounds of the present invention and of the Comparative Compounds on the HIV-1 lai strain cultivated on peripheral blood mononucleated cells (PBMC). For this purpose, the test compounds were incubated for seven days (duration of the anti-HIV test) with the PBMC in exponential phase of growth. The ability of the compounds to inhibit the viral replication was then measured in the culture supernatants either by an assay of the “Reverse Transcriptase” (RT) activity with the kit RetroSys TR (INNOVAGEN) or by an assay of the protein P24 with the kit Innotest HIV Antigen mAb Screening (IMMUNOGENETICS). The concentrations of the test compound causing 50 and 90% inhibition of the viral replication were determined. It concerns inhibition concentrations IC50 and IC90, respectively. The PBMC were isolated as described in Ulmer and col., Immunobiology, 166(3), 238-250 (1984) from a healthy donor by a Ficoll gradient (Nicomed Pharma AS). The PBMC were activated with phytohemagglutinine for three days and then cultivated in a 96-well plate, in a base medium (RPMI) supplemented with recombinant human Interleukin-2. Throughout the culture, the cells were maintained at 37° C., in an atmosphere saturated in humidity, and under 5% CO2. The PBMC were pre-treated for one hour in the presence of the test compounds at various concentrations, and then infected with 100 TCID50 of HIV-1-Lai [S. Wain-Hobson and col., Science 17, 252 (5008): 961-965 (1991)]. Three days after the infection with HIV-1, the half of the culture medium was changed and, at the day 7, the supernatants were taken and frozen at −20° C. Then, the viral replication was measured: a) by assaying the “Reverse Transcriptase” (RT) activity in the culture supernatants by means of the kit RetroSys (Innovagen). The RT contained in the supernatant synthesizes, in the presence of bromodeoxyuridine triphosphate (BrdUTP), a complementary strand DNA to a matrix immobilized on the bottom of the wells of a 96-well plate. The incorporation of BrdU is quantified by the fixation of an antibody anti-BrdU conjugated to the alkaline phosphatase. The activity of the attached alkaline phosphatase, measured by colorimetry, is proportional to the RT activity in the culture supernatant. The results described below are the results of at least two experiments which are distinct and carried out in triplicate.

HIV-1 = details: cited from earlier work; for activity against HIV-1: prior art
[2] = Combination test with AZT, ddI and ddC; assay type: cell-based
[3] = system: Bone marrow cells of Balb/c mice; assay: Toxicity test on bone marrow cells (proliferation by Trypan blue count, differentiation by flow cytometry); assay type: cell-based; details: for cell proliferation / proportions of lymphocytes B, myelocytes, neutrophiles and macrophages induced by the cytokines: mouse bone marrow cells, 5 days; for cell proliferation: 1×10^−12 to 1×10^−5 M, versus absence of compound; for proportions of lymphocytes B, myelocytes, neutrophiles and macrophages induced by the cytokines: whatever the concentration, presence versus absence of compound
Experimental: Toxicity tests of Compounds No. 3 and 5 of the present invention were further carried out on bone marrow cells according to the following working method. Bone marrow cells of Balb/c mice were cultivated at the rate of 5×10^5 cells/ml in cultures of 1 ml in RPMI 1640 medium supplemented with 1 mM glutamine, 10% fetal calf serum, penicillin and streptomycin (GIBCO, USA). The cells were stimulated by addition of 1 ng/ml of Stem cell factor (c-kit ligand), IL3 and GM-CSF (Pharmingen, USA) in the presence of increasing concentrations of the Compounds 3 and 5 of the present invention ranging from 1×10^−12 to 1×10^−5 M. After 5 days of culture at 37° C., 5% CO2, the cells were recovered. The proliferation was evaluated by numeration of living cells in the presence of Trypan blue. The differentiation of the cells was evaluated by Flow Cytometry (Facs-Calibur, BECTON DICKINSON, USA) by double labeling of the cells with antibodies anti-CD38 conjugated with phycoerythrine (PE), anti-Gr1 conjugated with fluoresceine 5 (Fl), anti-Gr1-PE and anti-CD11b-Fl (Pharmingen, USA).

PBMC = assay: Cytotoxicity assay revealed by MTT after seven days of culture; assay type: cell-based, human; details: 7 days, 50% diminution of growth and viability
Experimental: as §1, §2, §3, §4, §5

Compound: CCc1c(Cc2ccccc2)n(COCCN(O)C(N)=O)c(=O)[nH]c1=O [Comparative 3, 1-(2-N^1-hydroxyureidoethyloxymethyl)-6-benzyl-5-ethyluracile]
CC50 at 7 days [1]: > 250000 nM
melting point: 276 to 277 °C
IC50 (HIV-1; against HIV-1, prior art): 70 nM
activity against HIV-1 (HIV-1): only very moderately active
IC50 (HIV-1 lai strain): 70 nM

Compound: CCOCn1c(Cc2ccccc2)c(C(C)C)c(=O)[nH]c1=O [Comparative 4, 1-ethyloxymethyl-6-benzyl-5-isopropyluracil, reference compound]
CC50 at 7 days [1]: > 30000 nM
IC50 (HIV-1 lai strain): 2 nM

Compound: CC(=O)ON(CCCOCn1c(Cc2cc(C)cc(C)c2)c(C(C)C)c(=O)[nH]c1=O)C(N)=O [Compound 4, 1-(3-N^1-acetoxyureidopropyloxymethyl)-6-(3,5-dimethylbenzyl)-5-isopropyluracile]
CC50 at 7 days [1]: 30000 nM
melting point: 77 to 79 °C
IC50 (HIV-1 lai strain): 0.03 nM
IC90 (HIV-1 lai strain): 0.6 nM

Compound: Cc1cc(C)cc(Cc2c(C(C)C)c(=O)[nH]c(=O)n2COCCCN(OC(=O)C(C)(C)C)C(N)=O)c1 [Compound 5, 1-(3-N^1-pivaloyloxyureidopropyloxymethyl)-6-(3,5-dimethylbenzyl)-5-isopropyluracil]
CC50 (PBMC): 65000 nM
toxic effects on bone marrow cells of mice [3]: no significant toxic effects
cell proliferation [3]: identical to the one observed in the absence
proportions of lymphocytes B, myelocytes, neutrophiles and macrophages induced by the cytokines [3]: identical in the presence or in the absence
activity relative to that of its congeners or of its rivals (HIV-1 lai strain): 1,000,000 times

Compound: Cc1cn(C(C)OCCN(O)C(N)=O)c(=O)[nH]c1=O (stereo not shown) [Formula B]
activity against HIV-1 (HIV-1): totally inactive

More lines, main results first:

melting point: 147 to 148 °C
IC50 (HIV-1 lai strain): 0.92 nM
IC90 (HIV-1 lai strain): 15 nM
Compound: CCc1c(Cc2cc(C)cc(C)c2)n(COCCN(O)C(N)=O)c(=O)[nH]c1=O [Comparative 1, 1-(2-N^1-hydroxyureidoethyloxymethyl)-6-(3,5-dimethylbenzyl)-5-ethyluracil]
CC50 at 7 days [1]: > 500000 nM

melting point: 148 to 150 °C
IC50 (HIV-1 lai strain): 2.3 nM
IC90 (HIV-1 lai strain): 30 nM
Compound: CCc1c(Cc2cc(C)cc(C)c2)n(COCCCCN(O)C(N)=O)c(=O)[nH]c1=O [Comparative 2, 1-(4-N^1-hydroxyureidobutyloxymethyl)-6-(3,5-dimethylbenzyl)-5-ethyluracil]
CC50 at 7 days [1]: > 50000 nM

IC50 (HIV-1 lai strain): 2.3 nM
IC90 (HIV-1 lai strain): 9 nM
Compound: CCc1c(Cc2cc(C)cc(C)c2)n(COCCCNC(=O)NO)c(=O)[nH]c1=O [Compound 1, 1-(3-N^3-hydroxyureidopropyloxymethyl)-6-(3,5-dimethylbenzyl)-5-ethyl-uracil]
CC50 at 7 days [1]: 260000 nM

melting point: 165 to 167 °C
IC50 (HIV-1 lai strain): 0.24 nM
IC90 (HIV-1 lai strain): 1.7 nM
Compound: CCc1c(Cc2cc(C)cc(C)c2)n(COCCCN(O)C(N)=O)c(=O)[nH]c1=O [Compound 2, 1-(3-N1-hydroxyureidopropyloxymethyl)-6-(3,5-dimethylbenzyl)-5-ethyl-uracil]
CC50 at 7 days [1]: > 300000 nM
synergy with AZT, ddI and ddC [2]: exhibited a synergy

melting point: 88 to 90 °C
IC90 (HIV-1 lai strain): 0.0039 nM
Compound: Cc1cc(C)cc(Cc2c(C(C)C)c(=O)[nH]c(=O)n2COCCCN(O)C(N)=O)c1 [Compound 3, 1-(3-N^1-hydroxyureidopropyloxymethyl)-6-(3,5-dimethylbenzyl)-5-isopropyluracil]
CC50 at 7 days [1]: 220000 nM
toxic effects on bone marrow cells of mice ([3]; even at concentrations 1×10^6 time higher than those inhibiting HIV replication in human lymphocytes in vitro): no significant toxic effects
cell proliferation [3]: identical to the one observed in the absence
proportions of lymphocytes B, myelocytes, neutrophiles and macrophages induced by the cytokines [3]: identical in the presence or in the absence
activity relative to that of its congeners or of its rivals (HIV-1 lai strain): 100,000 times
